Laboratory results from US20090215805A1, “4-Heteroaryl Pyrimidine Derivatives and use thereof as Protein Kinase Inhibitors” (Cyclacel Limited, priority 2005, published 2009).

Legend:
[1] = target: CDK2/E (Homo sapiens, UniProt P24941); assay: CDK2/E in vitro kinase assay; type: biochemical
Procedure: (§1) The compounds of the invention above were investigated for their ability to inhibit the enzymatic activity of various protein kinases. This was achieved by measurement of incorporation of radioactive phosphate from ATP into appropriate polypeptide substrates. Recombinant protein kinases and kinase complexes were produced or obtained commercially. Assays were performed using 96-well plates and appropriate assay buffers (typically 25 mM β-glycerophosphate, 20 mM MOPS, 5 mM EGTA, 1 mM DTT, 1 mM […], pH 7.4), into which were added 2-4 μg of active enzyme with appropriate substrates. The reactions were initiated by addition of Mg/ATP mix (15 mM MgCl2+100 μM ATP with 30-50 kBq per well of [γ-^32P]-ATP) and mixtures incubated as required at 30° C. Reactions were stopped on ice, followed by filtration through p81 filterplates or GF/C filterplates (Whatman Polyfiltronics, Kent, UK). After washing 3 times with 75 mM aq orthophosphoric acid, plates were dried, scintillant added and incorporated radioactivity measured in a scintillation counter (TopCount, Packard Instruments, Pangbourne, Berks, UK). Compounds for kinase assay were made up as 10 mM stocks in DMSO and diluted into 10% DMSO in assay buffer. Data was analysed using curve-fitting software (GraphPad Prism version 3.00 for Windows, GraphPad Software, San Diego Calif. USA) to determine IC50 values (concentration of test compound which inhibits kinase activity by 50%).

[2] = target: T1, Human aurora kinase A (Homo sapiens, UniProt O14965); assay: Aurora-A (human) kinase assay; type: biochemical; settings: values marked *: Human aurora kinase A; read-out: Aur A IC50 (*Human aurora kinase A)
T1 construct: purchased Upstate, Dundee, UK
T1 sequence (O14965 1-403): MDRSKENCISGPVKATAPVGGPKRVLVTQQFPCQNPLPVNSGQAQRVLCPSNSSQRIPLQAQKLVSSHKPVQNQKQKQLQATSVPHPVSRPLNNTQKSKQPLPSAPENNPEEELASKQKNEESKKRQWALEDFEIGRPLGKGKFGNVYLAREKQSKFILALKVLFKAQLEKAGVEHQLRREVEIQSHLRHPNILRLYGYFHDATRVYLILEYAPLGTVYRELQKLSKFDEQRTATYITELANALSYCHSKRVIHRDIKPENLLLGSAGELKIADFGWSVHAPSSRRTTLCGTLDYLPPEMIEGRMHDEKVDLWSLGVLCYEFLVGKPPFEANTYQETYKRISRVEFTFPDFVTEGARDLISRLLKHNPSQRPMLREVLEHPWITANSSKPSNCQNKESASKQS
Procedure: This was achieved by measurement of incorporation of radioactive phosphate from ATP into Kemptide substrate (LRRASLG), upon phosphorylation by commercially obtained aurora-A (human, Upstate, Dundee, UK). Assays were performed using 96-well plates and appropriate assay buffers (20 mM Tris, 25 mM β-glycerophosphate, 5 mM EGTA, 1 mM DTT, 1 mM sodium vanadate, pH 7.5), into which were added 2-5 ng of active enzyme with 500 μM substrate (Kemptide). The reactions were initiated by addition of MgATP mix (15 mM MgCl2+100 μM ATP with 15-25 kBq per well of [γ-^32P]-ATP) and mixtures incubated for 30 min at 30° C. Reactions were stopped by addition of an equal volume of 75 mM aq orthophosphoric acid, followed by filtration through p81 filterplates (Whatman Polyfiltronics, Kent, UK). After washing 4 times with 75 mM aq orthophosphoric acid, plates were dried, scintillant added and incorporated radioactivity measured in a scintillation counter (TopCount, Packard Instruments, Pangbourne, Berks, UK). Compounds for kinase assay were made up as 10 mM stocks in DMSO and diluted into 10% DMSO in assay buffer. Data was analysed using curve-fitting software (XLfit version 4.0.2, IDBS, Guildford, Surrey, UK) to determine IC50 values (concentration of test compound which inhibits kinase activity by 50%).

[3] = target: DM Aur A (Dm AK-A) (Drosophila melanogaster, UniProt Q9VGF9); assay: Dm aurora A kinase assay (DM Aur A / Dm AK-A); type: biochemical; settings: for Ki: in vitro kinase assay; for IC50: values without asterisk (DM aurora A)
Chain of DM Aur A (Dm AK-A) (Q9VGF9 entry or part of it): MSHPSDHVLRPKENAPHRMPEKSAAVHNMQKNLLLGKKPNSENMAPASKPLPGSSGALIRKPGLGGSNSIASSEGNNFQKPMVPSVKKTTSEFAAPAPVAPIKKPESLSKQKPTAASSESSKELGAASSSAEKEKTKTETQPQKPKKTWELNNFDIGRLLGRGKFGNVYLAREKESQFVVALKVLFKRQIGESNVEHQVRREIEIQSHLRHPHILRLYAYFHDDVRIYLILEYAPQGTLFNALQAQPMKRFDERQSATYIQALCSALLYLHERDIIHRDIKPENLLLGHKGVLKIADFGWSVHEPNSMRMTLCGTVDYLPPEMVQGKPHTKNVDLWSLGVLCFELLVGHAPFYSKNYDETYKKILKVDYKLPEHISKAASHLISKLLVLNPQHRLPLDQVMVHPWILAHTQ
Procedure: as §1

[4] = target: GSK3 (GSK-3β) (Oryctolagus cuniculus, UniProt A0A5F9DUX8); assay: GSK-3 kinase assay; type: biochemical, rabbit; settings: in vitro kinase assay
Chain of GSK3 (GSK-3β) (A0A5F9DUX8 entry or part of it): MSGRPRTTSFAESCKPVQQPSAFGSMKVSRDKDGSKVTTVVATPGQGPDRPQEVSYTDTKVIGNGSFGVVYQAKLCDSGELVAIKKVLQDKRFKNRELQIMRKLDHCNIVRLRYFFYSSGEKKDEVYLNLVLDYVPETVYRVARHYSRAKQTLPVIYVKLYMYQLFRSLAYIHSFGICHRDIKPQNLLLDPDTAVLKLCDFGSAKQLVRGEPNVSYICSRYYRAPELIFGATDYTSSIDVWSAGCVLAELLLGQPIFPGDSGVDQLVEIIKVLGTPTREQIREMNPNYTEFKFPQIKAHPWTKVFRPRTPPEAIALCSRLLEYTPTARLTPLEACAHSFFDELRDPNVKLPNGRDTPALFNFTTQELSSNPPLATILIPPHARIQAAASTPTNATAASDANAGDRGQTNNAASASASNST
Procedure: GSK-3 was obtained from New England Biolabs (UK) Ltd., Hitchin, Herts. The recombinant enzyme was isolated from a strain of E. coli that carries a clone expressing GSK-3β derived from a rabbit skeletal muscle cDNA library [Wang, Q. M.; Fiol, C. J.; DePaoli-Roach, A. A.; Roach, P. J. J. Biol. Chem., 1994, 269, 14566]. Inhibition of GSK-3 function was assessed by measurement of phosphorylation of CREB phosphopeptide KRREILSRRPphosphoSYR in the presence of test compounds. Using a 96-well assay format, GSK3 (7.5 U) was incubated for 30 min at 30° C. in a total volume of 25 μL in 20 mM MOPS pH 7.2, 25 mM β-glycerophosphate, 5 mM EGTA, 1 mM DTT, 1 mM […], 40 μM CREB peptide, 15 mM MgCl2 and 100 μM ATP (containing 0.25 μCi [γ-^32P]-ATP) in the presence of varying concentrations of test compound. The samples were transferred to 96-well p81 filter plates (Whatman Polyfiltronics, Kent, UK), and the plates were washed 4 times with 200 μL/well of 75 mM aq orthophosphoric acid. Scintillation liquid (50 μL) was added to each well, and incorporated radioactivity for each sample was determined using a scintillation counter (TopCount, Packard Instruments, Pangboume, Berks, UK).

Row | Ki [1] [nM] | IC50 [2] [nM] | melting point [°C] | Ki [3] [nM] | IC50 [3] [nM] | Ki [4] [nM] | Structure (SMILES)
1 | > 10000 | – | – | – | – | – | COc1cc(Nc2nccc(-c3c(C)cn(C)c3C)n2)cc(OC)c1OC [Compound 57]
2 | > 10000 | – | – | – | – | – | COc1cc(Nc2nccc(-c3c(C)c[nH]c3C)n2)cc(OC)c1OC [Compound 56]
3 | – | 531 | – | – | – | – | Cc1cn(C)c(C)c1-c1ccnc(Nc2ccc(N3CCOCC3)c(Cl)c2)n1 [Compound 49]
4 | – | – | 202 to 205 | 278 | 712 | – | CCOC(=O)c1[nH]c(C)c(-c2ccnc(Nc3ccc(O)c([N+](=O)[O-])c3)n2)c1-c1ccccc1 [Compound 11]
5 | 12 | – | – | 307 | 786 | 14 | CCN(CC)CCNS(=O)(=O)c1ccc(Nc2nccc(-c3c(C)[nH]c(C#N)c3C)n2)cc1 [Compound 36]
6 | – | – | 200 to 203 | > 10000 | ≥ 10000 | – | CCOC(=O)c1[nH]c(C)c(-c2ccnc(Nc3cccc(F)c3)n2)c1-c1ccccc1 [Compound 8]
7 | – | 230 | – | – | – | – | Cc1c[nH]c(C)c1-c1ccnc(Nc2ccc(N3CC(C)OC(C)C3)cc2)n1 (centres unmarked) [Compound 51]
8 | 1120 | 125 | – | – | – | – | COc1cc(Nc2nccc(-c3c(C)c(C#N)n(C)c3C)n2)cc(OC)c1OC [Compound 53]
9 | – | – | – | 108 | 276 | – | Cc1[nH]c(C#N)c(C)c1-c1ccnc(Nc2ccc(N3CCN(Cc4ccccc4)CC3)cc2)n1 [Compound 40]
10 | – | 261 | – | – | – | – | Cc1c[nH]c(C)c1-c1ccnc(Nc2ccc(N3CCOCC3)c(Cl)c2)n1 [Compound 44]
11 | 33 | – | 88.3 to 92.6 | 40 | 102 | 3270 | Cc1[nH]c(CN(C)C)c(C)c1-c1ccnc(Nc2cccc([N+](=O)[O-])c2)n1 [Compound 17]
12 | > 10000 | – | – | > 10000 | ≥ 10000 | 375 | Cc1ccc([N+](=O)[O-])cc1Nc1nccc(-c2c(C)[nH]c(C#N)c2C)n1 [Compound 27]
13 | 119 | – | – | 49 | 125 | 53 | CNc1ccc(Nc2nccc(-c3c(C)[nH]c(C#N)c3C)n2)cc1C(F)(F)F [Compound 31]
14 | – | 3030 | – | – | – | – | CCOC(=O)c1[nH]c(C)c(-c2ccnc(Nc3ccc(N4CCOCC4)c(Cl)c3)n2)c1C [Compound 46]
15 | 310 | – | – | 69 | 177 | – | CC(=O)N1CCN(c2ccc(Nc3nccc(-c4c(C)[nH]c(C#N)c4C)n3)cn2)CC1 [Compound 38]
16 | 4700 | – | – | – | – | – | CCOC(=O)c1[nH]c(C)c(-c2ccnc(Nc3cc(OC)c(OC)c(OC)c3)n2)c1C [Compound 58]
17 | > 10000 | 91 | – | – | – | – | CCOC(=O)c1[nH]c(C)c(-c2ccnc(Nc3ccc(N4CCOCC4)c(OC)c3)n2)c1C [Compound 54]
18 | – | – | 194.1 to 195.6 | 602 | 1540 | 133 | Cc1[nH]cc(-c2ccccc2)c1-c1ccnc(Nc2ccc(O)cc2)n1 [Compound 15]
19 | 861 | – | – | – | – | 167 | COc1ccc(Nc2nccc(-c3c(C)c[nH]c3C)n2)cn1 [Compound 26]
20 | – | – | – | 333 | 853 | – | COCCOC(=O)c1[nH]c(C)c(-c2ccnc(Nc3ccc(N4CCOCC4)cc3)n2)c1-c1ccccc1 [Compound 37]

Row | Ki [1] [nM] | IC50 [2] [nM] | melting point [°C] | Ki [3] [nM] | IC50 [3] [nM] | Ki [4] [nM] | Structure (SMILES)
21 | 876 | – | – | 1300 | 3320 | 5 | Cc1[nH]c(C#N)c(C)c1-c1ccnc(Nc2cccc(S(=O)(=O)NC(C)C)c2)n1 [Compound 34]
22 | – | – | 196.6 to 198.1 | – | – | 45 | Cc1[nH]cc(-c2ccccc2)c1-c1ccnc(Nc2ccc(F)cc2)n1 [Compound 16]
23 | – | – | 227 to 230 | > 10000 | ≥ 10000 | – | CCOC(=O)c1[nH]c(C)c(-c2ccnc(Nc3ccc(C(F)(F)F)cc3)n2)c1-c1ccccc1 [Compound 10]
24 | – | – | – | 666 | 1700 | 7 | Cc1cc(Nc2nccc(-c3c(C)[nH]c(C#N)c3C)n2)cnc1Cl [Compound 33]
25 | – | > 10000 | – | – | – | – | CCOC(=O)c1[nH]c(C)c(-c2ccnc(Nc3cc(Cl)c(N4CCOCC4)c(Cl)c3)n2)c1C [Compound 47]
26 | 538 | – | – | – | – | 11 | Cc1c(-c2ccnc(Nc3ccc(N(C)C)cc3)n2)c(C)n(C)c1C#N [Compound 20]
27 | – | > 10000 | – | – | – | – | Cc1cc(N2CCOCC2)ccc1Nc1nccc(-c2c(C)c[nH]c2C)n1 [Compound 50]
28 | – | – | – | 91 | 234 | – | CC(=O)N1CCN(c2ccc(Nc3nccc(-c4c(C)c(C#N)n(C)c4C)n3)cn2)CC1 [Compound 39]
29 | 759 | 168 | – | – | – | – | COc1cc(Nc2nccc(-c3c(C)[nH]c(C#N)c3C)n2)cc(OC)c1OC [Compound 52]
30 | 574 | – | – | – | – | 127 | Cc1[nH]c(C#N)c(C)c1-c1ccnc(Nc2ccc(N3CCOCC3)cc2)n1 [Compound 24]
31 | – | – | 201 to 203 | 335 | 859 | 208 | Cc1[nH]cc(-c2ccccc2)c1-c1ccnc(Nc2cccc([N+](=O)[O-])c2)n1 [Compound 13]
32 | – | > 10000 | – | – | – | – | Cc1c[nH]c(C)c1-c1ccnc(Nc2cc(Cl)c(N3CCOCC3)c(Cl)c2)n1 [Compound 45]
33 | > 10000 | – | – | 2520 | 6470 | 731 | COc1ccc(C)c(Nc2nccc(-c3c(C)[nH]c(C#N)c3C)n2)c1 [Compound 29]
34 | – | – | 123.1 to 124.2 | 423 | – | – | CCOC(=O)c1[nH]c(C)c(-c2ccnc(Nc3cccc(O)c3)n2)c1-c1ccccc1 [Compound 7]
35 | – | – | – | > 10000 | ≥ 10000 | 601 | Cc1c[nH]c(C)c1-c1ccnc(Nc2ccc(C#N)cc2)n1 [Compound 1]
36 | – | – | – | > 10000 | ≥ 10000 | 3690 | Cc1c[nH]c(C)c1-c1ccnc(Nc2cccc(C#N)c2)n1 [Compound 2]
37 | – | 222 | – | – | – | – | Cc1cn(C)c(C)c1-c1ccnc(Nc2ccc(N3CCOCC3)cc2)n1 [Compound 48]
38 | – | – | – | 103 | 265 | – | CCOC(=O)c1[nH]c(C)c(-c2ccnc(Nc3ccc(N4CCOCC4)cc3)n2)c1C [Compound 43]
39 | 1810 | – | – | 8 | 72 | – | Cc1c[nH]c(C)c1-c1ccnc(Nc2ccc(N3CCOCC3)cc2)n1 [Compound 4]
40 | 308 | – | – | 19 | 48 | – | CC(=O)N1CCN(c2ccc(Nc3nccc(-c4c(C)[nH]c(C#N)c4C)n3)cc2)CC1 [Compound 41]
